Data from ChEMBL document CHEMBL4038282 (Eur J Med Chem, 2017).
≈ marks a conversion by molar mass, not a printed value.

Experiments:
[1] = test system: MDA-MB-231; assay: Antiproliferative activity against human MDA-MB-231 cells up to 72 hrs by MTT assay; type: functional, cell-based; settings: MDA-MB-231, 72 h
[2] = test system: MDA-MB-231; assay: Potency index, ratio of curcumin IC50 to compound IC50 for human MDA-MB-231 cells; type: functional
[3] = test system: HCT-116; assay: Antiproliferative activity against human HCT116 cells up to 72 hrs by MTT assay; type: functional, cell-based; settings: HCT-116, 72 h
[4] = test system: PC-3; assay: Antiproliferative activity against human PC3 cells up to 72 hrs by MTT assay; type: functional, cell-based; settings: PC-3, 72 h
[5] = test system: T47D; assay: Antiproliferative activity against ER/PR positive human T47D cells after 24 hrs by MTT assay; type: functional, cell-based
[6] = test system: MCF7; assay: Antiproliferative activity against ER/PR positive human MCF7 cells after 24 hrs by MTT assay; type: functional, cell-based; settings: MCF7, 24 h
[7] = test system: MDA-MB-453; assay: Antiproliferative activity against HER2 positive human MDA-MB-453 cells after 24 hrs by MTT assay; type: functional, cell-based; settings: MDA-MB-453, 24 h
[8] = test system: MDA-MB-157; assay: Antiproliferative activity against human MDA-MB-157 cells after 24 hrs by MTT assay; type: functional, cell-based; settings: MDA-MB-157, 24 h
[9] = test system: BT-474; assay: Antiproliferative activity against HER2 positive human BT474 cells after 24 hrs by MTT assay; type: functional, cell-based; settings: BT-474, 24 h
[10] = test system: SK-BR-3; assay: Antiproliferative activity against HER2 positive human SKBR3 cells after 24 hrs by MTT assay; type: functional, cell-based; settings: SK-BR-3, 24 h
[11] = test system: MDA-MB-468; assay: Antiproliferative activity against human MDA-MB-468 cells after 24 hrs by MTT assay; type: functional, cell-based; settings: MDA-MB-468, 24 h
[12] = test system: Hs-578T; assay: Antiproliferative activity against human Hs578T cells after 24 hrs by MTT assay; type: functional, cell-based
[13] = test system: MDA-MB-468; assay: Antiproliferative activity against doxorubicin-resistant human MDA-MB-468 cells after 24 hrs by MTT assay; type: functional, cell-based; settings: MDA-MB-468, 24 h
[14] = test system: Mus musculus; assay: Toxicity in nu/nu mouse assessed as changes in body weight at 100 mg/kg, po administered once daily for 32 days measured every 4 days during compound dosing; type: organism-based; settings: in vivo
[15] = test system: Mus musculus; assay: Toxicity in nu/nu mouse assessed as effect on food consumption at 100 mg/kg, po administered once daily for 32 days measured during compound dosing; type: organism-based; settings: in vivo, 768 h
[16] = test system: Mus musculus; assay: Toxicity in nu/nu mouse assessed as behavioral changes at 100 mg/kg, po administered once daily for 32 days measured during compound dosing; type: organism-based; settings: in vivo, 768 h
[17] = Solubility of the compound in water after 24 hrs by shake-flask method; type: physicochemical
[18] = Solubility of the compound in ethanol after 24 hrs by shake-flask method; type: physicochemical; settings: 24 h

| IC50 [1] [µM] | IC50 [3] [µM] | IC50 [4] [µM] | IC50 [5] [µM] | IC50 [6] [µM] | IC50 [7] [µM] | IC50 [8] [µM] | IC50 [9] [µM] | IC50 [10] [µM] | IC50 [11] [µM] | IC50 [13] [µM] | solubility thermodynamic at 24 h [17] [µg/mL] | solubility [18] [µg/mL] | SMILES | Ratio IC50 [2] | IC50 [12] [µM] | Activity [14] | Activity [15] | Activity [16] |
| --- | --- | --- | --- | --- | --- | --- | --- | --- | --- | --- | --- | --- | --- | --- | --- | --- | --- | --- |
| 3.85 | 3.64 | 7.03 | – | – | – | – | – | – | – | – | – | – | CCC(CO)(CO)C(=O)Oc1cc(/C=C/C(=O)/C=C(O)/C=C/c2ccc(OC)c(O)c2)ccc1OC | 2.4 - 12.2 | – | – | – | – |
| 2 | 1.34 | 4.21 | – | – | – | – | – | – | – | – | – | – | CCC(CO)(CO)C(=O)Oc1ccc(/C=C/C(=O)/C=C(O)/C=C/c2ccc(OC(=O)C(CC)(CO)CO)c(OC)c2)cc1OC | 2.4 - 12.2 | – | – | – | – |
| 2.29 | 1.95 | 2.32 | – | – | – | – | – | – | – | – | – | – | COc1ccc(/C=C/C(O)=C/C(=O)/C=C/c2ccc(OC)c(OC(=O)C(C)(CO)CO)c2)cc1O | 2.4 - 12.2 | – | – | – | – |
| 16.2 | 13.8 | 18.8 | 47.9 | 42.9 | 32.4 | 40.4 | 30.1 | 42.8 | 42.9 | 58.6 | 0.6 (≈ 1.63 µM) | 1860 (≈ 5050 µM) | COc1cc(/C=C/C(=O)CC(=O)/C=C/c2ccc(O)c(OC)c2)ccc1O [CURCUMIN] | – | 55.5 | Non-Toxic | Non-Toxic | Non-Toxic |
